This series can be described thus: gradient 5% acetonitrile 3 min, to 50% in 2 min, to 85% in 15 min, held 3 min, 100 µL/min. The conditions noted are these: column: Zorbax Extend-C18 2.1 x 50 mm; eluents: water / acetonitrile, 0.1% formic acid. In short, it runs like this:
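Values are retention times taken from adduct peaks that software picked and an analyst inspected. The pure standards were run as mixtures of ~100 molecules on HPLC linked to a quadrupole time-of-flight mass spectrometer, in positive and negative ionization mode. A Zorbax Extend-C18 column (2.1 × 50 mm, 1.8 μm) was used at 100 μL/min with water and acetonitrile, each including 0.1% formic acid.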
Regarding `COc1ccccc1-c1noc(Cn2c(=O)n(-c3ccc(Cl)cc3)c(=O)c3sccc32)n1`, the RP-LC retention time came to 950 s.
`Cc1ccc(N2CCN(C(=O)C3CCc4sc(C(=O)N(C)C)cc4C3)CC2)cc1` (centres undefined): the RP-LC retention time stood at 825 s.
`COc1cc(Br)cc2c1OC1(C)CC2NC(=O)N1c1cccc(C(=O)O)c1` (centres undefined) gave an RP-LC retention time of 672 s.
Next, `CN(CC1CCOCC1)C(=O)Nc1ccccc1Br`: 768 s; `CCc1ccccc1NC(=O)Cn1nc2c(Oc3cc(C)cc(C)c3)nccn2c1=O`: 946 s; `COc1cccc(-c2ccc(SCC(=O)Nc3ccccc3C(F)(F)F)nn2)c1`: 912 s.
As to `Cc1cc2oc3c(c(=O)c2cc1C)C(c1ccccc1F)N(c1nccs1)C3=O` (centres undefined), the RP-LC retention time stood at 1050 s.
Next, `CCOc1ccccc1NC(=O)Cn1nc2cc(C)nc(-c3ccccc3)n2c1=O`: 838 s; `CC1(C)CC(=O)C2=C(C1)Nc1ccccc1N(CC(=O)NCc1ccncc1)C2c1ccco1` (centres undefined): 631 s; `C[C@@H]1CN(C(=O)Cc2cccnc2)C[C@H]1c1nc(-c2ccncc2)no1`: 568 s.
Turning to `Cc1nnc2ccc(-c3noc(-c4cccc5[nH]ccc45)n3)cn12`, the RP-LC retention time was 843 s.
On to `CCc1noc([C@@H]2CC(F)(F)CN2C(=O)Cn2cc(C)cn2)n1`, for which the RP-LC retention time was 718 s.
With `CCCn1cc(CCNC(=O)c2cccc(Br)c2)c2cccnc21`, the RP-LC retention time is 833 s.
Next, `CCc1cccc(NS(=O)(=O)c2cc3n(c2)CCN(C)C3=O)c1`: 722 s; `COc1ccc(-c2nc3cnccn3c2Nc2ccc(C(=O)NC3CCCCC3)cc2)cc1OC`: 755 s; `Cc1nn2c(S(=O)(=O)NCC3CC3)c(C)nc2s1`: 690 s.
Next, `O=C1CCCN1CCCN1C(=O)[C@H]2CN(Cc3cccc(OC(F)(F)F)c3)C[C@H]2C1=O`: 678 s.
Take `CCc1noc(NC(C)=O)c1-c1ccc(C)c(S(=O)(=O)Nc2ccc(F)cc2)c1`: the RP-LC retention time worked out at 822 s.
Molecule `Cc1ccc2nc(CN(C)Cc3ccc(Cl)cc3)cc(=O)n2c1` registered an RP-LC retention time of 627 s.
`O=C(NCc1ccc(F)cc1)C1CCCN(c2nnc3ccc(Cl)cn23)C1` (centres undefined) displayed an RP-LC retention time of 749 s.
`COc1ccc(N2CCN(C(=O)C3CCCN(c4nnc(-n5cccc5)s4)C3)CC2)cc1` (centres undefined): the RP-LC retention time was determined as 829 s.
As to `O=C(CCc1c(-c2ccccc2)nc2ccccn12)Nc1ccc(F)cc1F`, the RP-LC retention time came out at 666 s.
`O=C(Nc1ccc2c(c1)CCC2)C1CCN(C(=O)c2ncn3c2COC(c2ccc(F)cc2)C3)CC1` (centres undefined) showed an RP-LC retention time of 872 s.
For the molecule `Cc1ccc(F)c(NC(=O)c2c(O)c3cccnc3n(-c3ccc(F)cc3)c2=O)c1`, the RP-LC retention time turned out to be 1140 s.
`Cc1ccc(C)c(NC(=O)Cn2c(N3CCCCC3)nc(C)cc2=O)c1` showed an RP-LC retention time of 688 s.
`Cc1cc(=O)n(CC(=O)Nc2ccccc2F)c(N2CCCC2)n1`: the RP-LC retention time came out at 616 s.
`COc1ccc(NC(=O)Nc2c(-c3ccccc3)nc3ccccn23)cc1OC` came in with an RP-LC retention time of 612 s.
In turn, `O=C(NCc1ccc2c(c1)OCO2)C1CCCN(c2nnc3ccccn23)C1` (centres undefined) had an RP-LC retention time of 573 s.
Next, `Cc1cc(C)c(NC(=O)COc2cc(C(F)(F)F)c3c(C)nn(C)c3n2)c(C)c1`: 1060 s; `COCCc1nc(C2CCCN(C(=O)c3sccc3C)C2)n[nH]1` (centres undefined): 590 s; `CCc1cc(=O)n(CC(=O)NCc2ccc(F)cc2)c(N2CCOCC2)n1`: 717 s.
`CCN(CC(=O)N1CCC(C(N)=O)CC1)S(=O)(=O)c1ccc(F)cc1`: the RP-LC retention time turned out to be 635 s.
`Cc1ccccc1N1CCN(S(=O)(=O)c2ccc(-c3nnc(C4CC4)o3)o2)CC1` displayed an RP-LC retention time of 1090 s.
The molecule `Cc1ccc(S(=O)(=O)N2C[C@@H]3C[C@H]2C[C@@H]3NC(=O)c2ccccc2)cc1Cl` had an RP-LC retention time of 946 s.
For the molecule `CCOC(=O)C1CCN(C(=O)c2ccc(-c3csc(C4CC4)n3)cc2)CC1`, the RP-LC retention time is 961 s.
The molecule `Cn1nccc1C(=O)Nc1ccc(OCc2nnc(-c3ccccc3)o2)cc1` yielded an RP-LC retention time of 786 s.
Turning to `Cc1ccc(Sc2nccnc2N2CCCC(C(=O)NCc3ccccc3C)C2)cc1` (centres undefined), the RP-LC retention time came to 1150 s.
Next, `O=C(NCc1ccc(Cl)cc1)c1cccn1-c1cccnc1`: 742 s; `OC(CN1CCN(c2ccccc2)CC1)c1ccc2c(c1)OCO2` (centres undefined): 630 s; `CCC(=O)Nc1ccc(-n2cnc(C(=O)N3CC(C)CC(C)C3)c2)nc1` (centres undefined): 772 s.
`CCC(=O)Nc1nc(-c2ccc3c(c2)NC(=O)CO3)c(C)s1` had an RP-LC retention time of 719 s.
As for `Cc1cc(SCC(=O)Nc2nc(-c3ccccc3)cs2)nc(C)n1`, the RP-LC retention time is 841 s.
With `O=C(c1ccc(Br)o1)N1CCN(c2ccc(NCc3ccccc3)nn2)CC1`, the RP-LC retention time worked out at 668 s.
Consider `O=C(Cc1cccs1)NCCS(=O)(=O)N1CCc2ccccc2C1`, for which the RP-LC retention time came to 764 s.
As to `COc1ccc(Nc2cc(C(=O)N3CCC(C)CC3)nc3cc(OC)c(OC)cc23)cc1Cl`, the RP-LC retention time was 778 s.
For the molecule `CCC(C)NC(=O)c1n[nH]c2c1CCCCCC2` (centres undefined), the RP-LC retention time came out at 850 s.
Molecule `Cc1ccc(-c2cn3c(n2)N(C(=O)c2sc(C)nc2C)CCC3)cc1` gave an RP-LC retention time of 642 s.
`COc1ccc(C2=NN(S(C)(=O)=O)C(c3ccc4nccnc4c3)C2)c(F)c1` (centres undefined) displayed an RP-LC retention time of 740 s.
For `Cc1cc2n(n1)CCC(=O)N2CCCC(=O)N(C)Cc1ccccc1`, the RP-LC retention time was 681 s.
Take `Cn1cc(CN2CCC(C(=O)NCc3ccc(F)cc3)CC2)c2cc(Cl)ccc21`: the RP-LC retention time worked out at 716 s.
The molecule `CC(C)(Cc1c[nH]c2ccccc12)NCC(O)COc1ccccc1C#N` (centres undefined) registered an RP-LC retention time of 757 s.
In the case of `CNC(=O)c1cc(C(C)(C)C)[nH]n1`, the RP-LC retention time is 618 s.
On to `CCc1noc(C2CCCCN2Cc2nc(-c3cccnc3)no2)n1` (centres undefined), for which the RP-LC retention time came to 821 s.
`Cc1noc([C@@H]2CN(Cc3cc(Cl)ccc3F)C[C@H]2CO)n1`: the RP-LC retention time was determined as 594 s.
Next, `COC(=O)c1ccc2c(=O)n(-c3ccc(OC)cc3)c(N3CCSC3)nc2c1`: 1050 s; `CN(C)CCCNC(=O)c1cn(C)nc1S(=O)(=O)N1CCN(c2ccc(Cl)cc2)CC1`: 684 s; `O=C(CC1CCN(S(=O)(=O)c2ccc(Cl)s2)CC1)N1CCN(c2ncccn2)CC1`: 872 s.
As to `O=C(NCc1ccccn1)c1nnn(Cc2ccccc2Cl)c1-n1cccc1`, the RP-LC retention time was found to be 712 s.
As for `CCOC(=O)N1CCC2(CC1)N=C(c1ccc(OCC)cc1)CC(c1cc(Cl)ccc1O)N2` (centres undefined), the RP-LC retention time was 726 s.
Next, `Cc1scc2nc(C(=O)N3CCN(C4CCCC4)CC3)nc(N3CCCC3)c12`: 550 s; `CCCNC(=O)C1CCCN(c2ccc(SCC(=O)Nc3cccc(Br)c3)nn2)C1` (centres undefined): 730 s.
Next, `COc1ncccc1CNC(=O)NCc1ccco1`: 568 s.
Regarding `COCCN1CCC(CNS(=O)(=O)c2ccc(F)cc2C)CC1`, the RP-LC retention time stood at 566 s.
Next, `O=C(CSc1nnc2c3sc(N4CCCC4)nc3ncn12)Nc1ccc2c(c1)OCO2`: 766 s.
Molecule `CCC(CN1CCOCC1)NC(=O)c1c2c(cn(-c3ccc(F)cc3)c1=O)C(=O)CC(C)(C)C2` (centres undefined) returned an RP-LC retention time of 657 s.
Turning to `Cc1ccc(NS(=O)(=O)c2ccc(-c3c(C)noc3C)cc2)cc1C`, the RP-LC retention time is 996 s.
Next, `O=C1CC(c2noc(-c3ccccc3)n2)CN1c1ccc(Cl)cc1` (centres undefined): 1040 s; `Cn1nc(-c2nc(Cc3ccccc3)no2)c2c1CCN(C(=O)NC1CCCCC1)C2`: 933 s; `CCOc1ccc(-n2nnc3c(=O)n(C/C=C/c4ccccc4)cnc32)cc1`: 969 s.
Next, `CC(=O)N1CCc2cc(N3CC(C(=O)NCc4ccc(Cl)cc4)CC3=O)ccc21` (centres undefined): 720 s; `CCN1C(=O)c2cccnc2Sc2cc(NC(=O)c3c(F)cccc3F)ccc21`: 808 s.
`CN(C)C(=O)c1ccc2c(c1)nc(CN1CCN(C(=O)c3ccccc3)CC1)n2C` came in with an RP-LC retention time of 597 s.
`Cc1scc2nc(C3CCC3)nc(N3CCC(C(=O)NCc4ccc(N(C)C)cc4)CC3)c12` had an RP-LC retention time of 604 s.
`CC(C)n1c(=O)c(NCc2ccccc2Br)nc2ccncc21` yielded an RP-LC retention time of 699 s.
In the case of `Nc1nc(Nc2ccccc2F)nc2cccc(F)c12`, the RP-LC retention time was found to be 615 s.
For `CN[C@@H]1C[C@@H](c2ccc(Cl)c(Cl)c2)c2ccccc21`, the RP-LC retention time was found to be 824 s.
As for `CN(Cc1nc2cc(C(=O)N3CCCC3)ccc2n1C)C(=O)Nc1cccc(Br)c1`, the RP-LC retention time was 665 s.
As to `Cn1nccc1C(=O)N1CCN(S(=O)(=O)c2ccc3c(c2)sc(=O)n3C)CC1`, the RP-LC retention time is 699 s.
On to `Cc1ccc(S(=O)(=O)N2CCC(c3nc(-c4cccc(-c5ccn[nH]5)c4)no3)CC2)cc1`, for which the RP-LC retention time is 971 s.
